Values belong to the compound of their own block, whether it stands above or below them. The source made the active and inactive calls. The calls are words filed in the database; no cut-off is given here. Where a SMILES comes first, the peptide text is derived from it. Bridges are numbered along the chain shown (N, C = ends).
Assays:
[1] = target: T1, SPRY domain-containing SOCS box protein 2 (Homo sapiens, UniProt Q99619); experiment: Binding affinity to GST-tagged SPSB2 (unknown origin) expressed in Escherichia coli BL21 (DE3) by SPR assay
T1 sequence (Q99619 whole entry): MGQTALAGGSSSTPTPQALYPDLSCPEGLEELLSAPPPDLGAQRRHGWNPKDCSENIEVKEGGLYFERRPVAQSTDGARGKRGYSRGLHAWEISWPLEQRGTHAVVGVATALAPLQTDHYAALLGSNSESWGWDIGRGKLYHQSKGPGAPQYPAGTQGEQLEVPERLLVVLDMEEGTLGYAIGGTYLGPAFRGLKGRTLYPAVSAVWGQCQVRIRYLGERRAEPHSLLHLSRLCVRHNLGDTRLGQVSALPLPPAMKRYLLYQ

[2] = Stability of the compound assessed as pepsin (unknown origin)-mediated drug degradation at 200:1 peptide to enzyme ratio after 24 to 96 hrs by RP-HPLC analysis; type: ADME; details: human
[3] = Stability in human plasma assessed as compound remaining at 50 uM after 24 hrs by RP-HPLC analysis; type: ADME, cell-free; details: read-out: Stability
[4] = target: T2, SPRY domain-containing SOCS box protein 2 (Mus musculus) (UniProt O88838); experiment: Displacement of full-length of iNOS from SPSB2 in LPS/IFNgamma-stimulated mouse BMDM cell lysate at 10 uM after 2 hrs by Western blotting analysis; type: cell-free
T2 sequence (whole entry): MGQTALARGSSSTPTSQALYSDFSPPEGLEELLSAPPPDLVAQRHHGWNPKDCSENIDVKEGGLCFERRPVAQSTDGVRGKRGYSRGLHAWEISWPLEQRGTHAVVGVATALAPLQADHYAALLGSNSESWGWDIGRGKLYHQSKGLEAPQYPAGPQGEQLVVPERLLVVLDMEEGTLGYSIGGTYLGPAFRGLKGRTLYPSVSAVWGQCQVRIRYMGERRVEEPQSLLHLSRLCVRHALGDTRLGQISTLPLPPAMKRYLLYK

[5] = Stability of the compound assessed as trypsin (unknown origin)-mediated drug degradation at 200:1 peptide to enzyme ratio after 24 to 96 hrs by RP-HPLC analysis; type: ADME; details: human
[6] = Stability of the compound assessed as alpha-chymitrypsin (unknown origin)-mediated drug degradation at 200:1 peptide to enzyme ratio after 24 to 96 hrs by RP-HPLC analysis; type: ADME; details: human
[7] = Stability of the compound in 1 mM DTT at 0.5 mg/ml after 15 mins by redox stability/RP-HPLC assay; type: physicochemical; details: 0.25 h
[8] = Stability of the compound in 1:1 ratio of DTT:H2O2 at 0.5 mg/ml after 1 hr by redox stability/RP-HPLC assay; type: physicochemical; details: 1:1 DTT:H2O2; read-out: Stability
[9] = Stability of the compound in 1:10 ratio of DTT:H2O2 at 0.5 mg/ml after 1 hr by redox stability/RP-HPLC assay; type: physicochemical

Kd [1]: 318 nM
Compound: Ac-DINNN-NH2

Kd [1]: 4.4 nM
Compound: CC[C@H](C)[C@@H]1NC(=O)[C@H](CC(=O)O)NC(=O)[C@H](C(C)C)NC(=O)[C@@H](NC(C)=O)CSSC[C@@H](C(N)=O)NC(=O)[C@H](CC(N)=O)NC(=O)[C@H](CC(N)=O)NC(=O)[C@H](CC(N)=O)NC1=O (Ac-CVDINNNC-NH2; disulfide 1-8)

Stability [2]: Unstable
remaining at 24 h, 50 µM [3]: 83%
Compound: Ac-KEEKDINNNVKKT-NH2

Kd [1]: 35.1 nM
inhibition [4]: Active
Stability [2]: Stable
Stability [5]: Stable
Stability [6]: Stable
Stability [7]: Unstable
remaining at 1 h, 0.5 mg/ml [8]: 55%
Stability [9]: Stable
Compound: CC[C@H](C)[C@H](NC(=O)[C@H](CC(=O)O)NC(=O)[C@@H](NC(=O)[C@H](CS)NC(C)=O)C(C)C)C(=O)N[C@@H](CC(N)=O)C(=O)N[C@@H](CC(N)=O)C(=O)N[C@@H](CC(N)=O)C(=O)N[C@@H](CS)C(N)=O (Ac-CVDINNNC-NH2)

From ChEMBL document CHEMBL3351643, “A potent cyclic peptide targeting SPSB2 protein as a potential anti-infective agent” (J Med Chem, 2014)
